Source: patent publication US12435104B2, “Cyclic dinucleotides as sting agonists” (BEIGENE, LTD., priority 2019, dated 2025)
Where a name gives a salt, the structure may show the parent alone.

Experiments:
STING in THP1-Dual Cells = experiment: STING cellular assay in THP1-Dual cells (ISG54-Lucia luciferase reporter); details: Homo sapiens, 24 h, read-out: Cellular activity EC50 in THP1-Dual Cells
[1] = tested on: hSTING-R232 in THP1-Dual KI-hSTING-R232 Cells; experiment: STING cellular assay in THP1-Dual KI-hSTING-R232 cells (Lucia luciferase reporter); details: Homo sapiens, THP1-Dual KI-hSTING-R232, 24 h, read-out: Cellular activity EC50 in THP1-Dual KI-hSTING-R232 Cells

| Structure (SMILES) | EC50 (STING in THP1-Dual Cells) [nM] | EC50 [1] [nM] |
| --- | --- | --- |
| Nc1nc2c(ncn2[C@@H]2O[C@@H]3COP(=O)(O)O[C@H]4[C@H](n5cnc6c(N)ncnc65)O[C@H](COP(=O)(O)O[C@H]3[C@H]2O)[C@]42CC2(F)F)c(=O)[nH]1 [Example 1, 2-amino-9-((1R,5′S,7′R,8′R,12a′R,14′R,15′R,15a′S)-7′-(6-amino-9H-purin-9-yl)-2,2-difluoro-2′,10′,15′-trihydroxy-2′,10′-dioxidooctahydro-12′H-spiro[cyclopropane-1,16′-[5,8]methanofuro[3,2-1][1,3,6,9,11]pentaoxa[2,10]diphosphacyclotetradecin]-14′-yl)-1,9-dihydro-6H-purin-6-one triethylamine salt] | 2680 | 3210 |
| Nc1nc2c(ncn2[C@@H]2O[C@@H]3CO[P@@](O)(=S)O[C@H]4[C@H](n5cnc6c(N)ncnc65)O[C@H](COP(O)(=S)O[C@H]3[C@H]2F)[C@]42CC2(F)F)c(=O)[nH]1 (stereo partly drawn) [Example 2, 2-amino-9-((1R,5′S,7′R,8′R,10′R,12a′R,14′R,15′R,15a′R)-7′-(6-amino-9H-purin-9-yl)-2,2,15′-trifluoro-2′,10′-dihydroxy-2′,10′-disulfidooctahydro-12′H-spiro[cyclopropane-1,16′-[5,8]methanofuro[3,2-1][1,3,6,9,11]pentaoxa[2,10]diphosphacyclotetradecin]-14′-yl)-1,9-dihydro-6H-purin-6-one] | 1760 | 2320 |
